Assay results reported in patent US20240376126A1, “PRMT5 INHIBITOR AND THE USE THEREOF” (CYTOSINLAB THERAPEUTICS CO., LTD., priority 2022, published 2024).

Assays:
HCT116 MTAP WT cells = assay: Proliferation inhibition of HCT116 cells in vitro (CellTiter Glo, 6 days); format: cell-based; conditions: Homo sapiens, HCT-116, 144 h, read-out: Cell proliferation inhibition rate HCT116 MTAP WT IC50 (nm)
Excerpt: (§1) Biological Test Example 2 Proliferation Inhibition of HCT116 and HCT116 MTAP-KO Cells In Vitro
(§2) HCT116 cell line was purchased from the Chinese Academy of Sciences Cell Bank, and the MTAP gene was knocked out by CRISPR/Cas9 technology to obtain HCT116-MTAP-KO cell line.
(§3) McCoy's 5A medium (Gibco, catalog No. 16600082), fetal bovine serum (Gibco, catalog No. 10099141C), penicillin-streptomycin double antibody (Gibco, catalog No. 15140122), pancreatic enzyme (Gibco, catalog No. 25200056), CellTiter Glo assay kit (Promega, catalog No. G7572), 384-well transparent flat-bottomed black walled cell culture plate (Corning, catalog No. 3764), ultra micro sampler (Tecan, catalog No. D300e), Multimode reader (Biotek, catalog No. SynergyHTX)
(§4) • 1. Cell culture: HCT116 and HCT116-MTAP-KO cells were cultured in McCoy'5A medium+10% fetal bovine serum+1% penicillin-streptomycin double antibody; to ensure that they were always in the logarithmic growth phase and the cell viability greater than 95%. • 2. Compound concentration gradient preparation: The compound to be tested was added to a 384-well plate using an ultra micro sampler, starting from 30 μM (HCT116 cells) or 3 μM (HCT116-MTAP-KO cells), and diluted with DMSO at 3 times for a total of 9 concentrations and set up three duplicate wells. • 3. Treatment of cells with compounds: Trypsin-digested HCT116 or HCT116-MTAP-KO cell suspension was added to the 384-well plates spotted with the compounds to be tested at 40 μL per well, i.e., 100 cells per well, and the final concentration of DMSO was 0.4%. The cell culture plate was incubated at 37° C. in a 5% CO2 incubator for 6 days. • 4. Detection: 20 μL of CellTiter Glo reagent was added to each well of the cell culture plate and incubated at room temperature for 30 minutes. A multimode reader was used to detect the luminescence signal at […]. • 5. Data analysis:
(§5) The data was fitted with GraphPad Prism 8.0 software using a four parameter inhibitor-reaction model to obtain the […] (half inhibitory concentration) of the test compounds.
(§6) The first column represents cell proliferation inhibition rate HCT116 MTAP WT IC50 (nm), and the second column represents cell proliferation inhibition rate HCT116-MTAP null IC50 (nm): […]

[1] = test system: HCT116-MTAP-KO (MTAP null) cells; assay: Proliferation inhibition of HCT116 MTAP-KO cells in vitro (CellTiter Glo, 6 days); format: cell-based; conditions: HCT116-MTAP null, 144 h, read-out: Cell proliferation inhibition rate HCT116-MTAP null IC50 (nm)
Excerpt: as §1, §2, §3, §4, §5, §6

Row | Structure (SMILES) | IC50 (HCT116 MTAP WT cells) | IC50 [1]
1 | Cc1ncc2c(N)nc3cc(F)c(C(=O)N(Cc4cn5ccccc5n4)CC(F)F)cc3n12 [Example 252] | 1000 to 10000 nM | 100 to 1000 nM
2 | CC(C)CN(Cc1cn2cc(C(F)(F)F)ccc2n1)C(=O)c1ccc2nc(N)c3c(c2c1)COC3 [Example 3, 4-Amino-N-isobutyl-N—((6-(trifluoromethyl)imidazolo [1,2-a]pyridin-2-yl)methyl)-1,3-dihydrofurano [3,4-c] quinolin-8-carboxamide] | 1000 to 10000 nM | < 100 nM
3 | CC1OCc2c1c(N)nc1ccc(C(=O)N(Cc3cn4ccccc4n3)C(C)C(F)(F)F)cc21 (stereo not shown) [Example 65] | 1000 to 10000 nM | 100 to 1000 nM
4 | CCN(Cc1cn2cc(C(F)(F)F)ncc2n1)C(=O)c1cc2c(cc1F)nc(N)c1c(C)ncn12 [Example 207] | 1000 to 10000 nM | < 100 nM
5 | Cc1ncc2c(N)nc3cc(F)c(C(=O)N(Cc4cn5cc(C(F)F)ccc5n4)c4c(F)cnn4C)cc3n12 [Example 303] | 100 to 1000 nM | < 100 nM
6 | Cn1ncc2c(N)nc3cc(F)c(C(=O)N(Cc4cn5ccccc5n4)CC(F)F)cc3c21 [Example 26] | 1000 to 10000 nM | < 100 nM
7 | Cn1ncc2c(N)nc3cc(F)c(C(=O)N(Cc4cn5ccccc5n4)C4CCCC4O)cc3c21 (stereo not shown) [Example 23] | 1000 to 10000 nM | < 100 nM
8 | CC(N(Cc1cn2ccccc2n1)C(=O)c1cc2c(cc1F)nc(N)c1cnn(C)c12)C(F)(F)F (stereo not shown) [Example 28] | 1000 to 10000 nM | < 100 nM
9 | Cn1cc(N(Cc2nc3ccccn3c2F)C(=O)c2ccc3nc(N)c4c(c3c2)COC4)cn1 [Example 92] | 1000 to 10000 nM | < 100 nM
10 | Cc1ncn2c1c(N)nc1cc(F)c(C(=O)N(Cc3cn4cc(C#N)ccc4n3)c3cnn(C)c3)cc12 [Example 253] | 1000 to 10000 nM | 100 to 1000 nM
11 | Cc1ncc2c(N)nc3cc(F)c(C(=O)N(Cc4cn5cc(C(F)(F)F)ccc5n4)C4CCOC4)cc3n12 (stereo not shown) [Example 230] | 1000 to 10000 nM | 100 to 1000 nM
12 | Cc1cc2cc(C(=O)N(Cc3cn4ccccc4n3)C(C)c3ncccn3)ccc2nc1N (stereo not shown) [Example 8] | 1000 to 10000 nM | < 100 nM
13 | CC1COCC(c2cn3ccccc3n2)N1C(=O)c1ccc2nc(N)c3c(cnn3C)c2c1 (stereo not shown) [Example 25] | 1000 to 10000 nM | 100 to 1000 nM
14 | Cn1ncc2c(N)nc3cc(F)c(C(=O)N(Cc4cn5ccccc5n4)C45CC(F)(C4)C5)cc3c21 [Example 59] | 1000 to 10000 nM | < 100 nM
15 | CC(C)CN(Cc1cn2ccccc2n1)C(=O)c1ccc2nc(N)c3c(c2c1)COC3C (stereo not shown) [Example 53] | 1000 to 10000 nM | < 100 nM
16 | Cc1ncc2c(N)nc3cc(F)c(C(=O)N(Cc4cn5ccccc5n4)C4CCC4)cc3n12 [Example 179] | 1000 to 10000 nM | < 100 nM
17 | [2H]C([2H])([2H])N(Cc1cn2ccccc2n1)C(=O)c1cc2c(cc1F)nc(N)c1cnn(C)c12 [Example 37] | 1000 to 10000 nM | < 100 nM
18 | CCN(Cc1cn2ccccc2n1)C(=O)c1ccc2nc(N)c3c(cnn3C)c2c1 [Example 29] | 1000 to 10000 nM | 100 to 1000 nM
19 | CCN(Cc1cn2ccccc2n1)C(=O)c1ccc2nc(N)c3c(c2c1)COC3 [Example 6] | 1000 to 10000 nM | < 100 nM
20 | CCN(Cc1cn2cc(CCN3CCOCC3)ccc2n1)C(=O)c1cc2c(cc1F)nc(N)c1cnc(C)n12 [Example 217] | 1000 to 10000 nM | 100 to 1000 nM
21 | Cn1ncc2c(N)nc3cc(F)c(C(=O)N(Cc4cn5ccccc5n4)C45CC(C4)C5)cc3c21 [Example 12] | 100 to 1000 nM | < 100 nM
22 | Cc1ncn2c1c(N)nc1cc(F)c(C(=O)N(Cc3nc4ccc(C(F)(F)F)cc4[nH]3)CC(C)C)cc12 [Example 269] | 1000 to 10000 nM | 100 to 1000 nM
23 | Cn1cc(N(Cc2nc3ccccn3c2F)C(=O)c2cc3c4c(c(N)nc3cc2F)COC4)cn1 [Example 83] | 100 to 1000 nM | < 100 nM
24 | COC1CCCC1N(Cc1cn2ccccc2n1)C(=O)c1cc2c(cc1F)nc(N)c1cnc(C)n12 (stereo not shown) [Example 185] | 1000 to 10000 nM | < 100 nM
25 | Cc1ncn2c1c(N)nc1cc(F)c(C(=O)N(c3cnn(C)c3)C3COc4ccccc43)cc12 (stereo not shown) [Example 221] | 1000 to 10000 nM | < 100 nM

Row | Structure (SMILES) | IC50 (HCT116 MTAP WT cells) | IC50 [1]
26 | Cc1ncn2c1c(N)nc1cc(F)c(C(=O)N(Cc3cn4ccccc4n3)C3CCC3O)cc12 (stereo not shown) [Example 261] | 1000 to 10000 nM | 100 to 1000 nM
27 | CC(c1ncccn1)N(Cc1nc2cnccc2s1)C(=O)c1ccc2nc(N)c3c(c2c1)COC3 (stereo not shown) [Example 304, 4-Amino-N-(1-(pyrimidin-2-yl)ethyl)-N-(thiazolo[4,5-c]pyridin-2-ylmethyl)-1,3-dihydrofurano[3,4-c]quinolin-8-carboxamide] | 100 to 1000 nM | < 100 nM
28 | CC1OCc2c1c(N)nc1ccc(C(=O)N(Cc3cn4ccccc4n3)c3cnn(C)c3)cc21 (stereo not shown) [Example 57] | 1000 to 10000 nM | 100 to 1000 nM
29 | Cc1nn(C)cc1N(Cc1cc2ccc(C(F)(F)F)cn2n1)C(=O)c1cc2c(cc1F)nc(N)c1cnc(C)n12 [Example 236] | 1000 to 10000 nM | < 100 nM
30 | Cc1cnn2c1c(N)nc1ccc(C(=O)N(Cc3cn4cc(C(F)(F)F)ccc4n3)CC(C)C)cc12 [Example 290] | 1000 to 10000 nM | < 100 nM
31 | Cc1ncn2c1c(N)nc1cc(F)c(C(=O)N(Cc3cn4ccccc4n3)c3cnn(C)c3C)cc12 [Example 255] | 1000 to 10000 nM | 100 to 1000 nM
32 | CC(C)CN(Cc1cn2cc(C(F)(F)C(F)(F)F)ccc2n1)C(=O)c1cc2c(cc1F)nc(N)c1cnn(C)c12 [Example 34] | < 100 nM | < 100 nM
33 | Cc1nn(C)cc1N(Cc1cn2cc(C(F)(F)F)ccc2n1)C(=O)c1cc2c(cc1F)nc(N)c1cnc(C)n12 [Example 234] | 1000 to 10000 nM | < 100 nM
34 | Cc1ncccc1N(Cc1cn2cc(C(F)(F)F)ccc2n1)C(=O)c1ccc2nc(N)c3c(c2c1)COC3C (stereo not shown) [Example 100] | 1000 to 10000 nM | < 100 nM
35 | Cc1ncc2c(N)nc3cc(F)c(C(=O)N(Cc4cn5ccccc5n4)c4ccnn4C)cc3n12 [Example 244] | 1000 to 10000 nM | < 100 nM
36 | COC1CC(N(Cc2cn3ccccc3n2)C(=O)c2cc3c(cc2F)nc(N)c2cnc(C)n23)C1 (stereo not shown) [Example 177] | 1000 to 10000 nM | 100 to 1000 nM
37 | C[C@H]1COC[C@@H](c2cc3ccccn3n2)N1C(=O)c1cc2c3c(c(N)nc2cc1F)COC3 [Example 124] | 1000 to 10000 nM | < 100 nM
38 | Cc1cn2c(n1)c(N)nc1cc(F)c(C(=O)N3C(C)COC[C@@H]3c3cn4ccccc4n3)cc12 (stereo partly shown) [Example 174] | < 100 nM | 100 to 1000 nM
39 | CCN(Cc1cn2cc(C(F)(F)F)ccc2n1)C(=O)c1cc2c(cc1F)nc(N)c1cnc(C)n12 [Example 178] | 1000 to 10000 nM | 100 to 1000 nM
40 | Cc1nn(C)cc1N(Cc1cn2cc(C(F)(F)F)ccc2n1)C(=O)c1ccc2nc(N)c3c(c2c1)COC3 [Example 89] | 1000 to 10000 nM | < 100 nM
41 | Cc1ncc2c(N)nc3cc(F)c(C(=O)N(Cc4cn5ccccc5n4)CC(F)(F)F)cc3n12 [Example 180] | 1000 to 10000 nM | 100 to 1000 nM
42 | Cc1cn2c(n1)c(N)nc1cc(F)c(C(=O)N(Cc3nc4ccccn4c3F)CC(C)C)cc12 [Example 188] | 1000 to 10000 nM | < 100 nM
43 | Cn1cc(N(Cc2cn3ccccc3n2)C(=O)c2cc3c(cc2F)nc(N)c2cnn(C)c23)cn1 [Example 14] | 1000 to 10000 nM | < 100 nM
44 | Cc1nn(C)cc1N(Cc1cc2ccc(C(F)(F)F)cn2n1)C(=O)c1cc2c(cc1F)nc(N)c1c(C)ncn12 [Example 235] | < 100 nM | < 100 nM
45 | CC(c1ncccn1)N(Cc1cc2n(n1)CCOC2)C(=O)c1ccc2nc(N)c3c(c2c1)CCC3 (stereo not shown) [Example 156] | 1000 to 10000 nM | 100 to 1000 nM
46 | Cc1ncc2c(N)nc3ccc(C(=O)N(Cc4cn5cc(C(F)(F)F)ccc5n4)c4c(F)cnn4C)cc3n12 [Example 300] | 1000 to 10000 nM | < 100 nM
47 | Cc1ncn2c1c(N)nc1cc(F)c(C(=O)N(Cc3cn4cc(CN5CCOCC5)ccc4n3)c3cnn(C)c3)cc12 [Example 254] | 1000 to 10000 nM | 100 to 1000 nM
48 | COCC(C)N(Cc1cn2ccccc2n1)C(=O)c1cc2c(cc1F)nc(N)c1c(C)ncn12 (stereo not shown) [Example 271] | 1000 to 10000 nM | < 100 nM
49 | Cc1ccc2nc(CN(C(=O)c3cc4c5c(c(N)nc4cc3F)COC5)c3cnn(C)c3)cn2c1 [Example 87] | 1000 to 10000 nM | < 100 nM
50 | Cn1cc(N(Cc2cn3cc(C(F)(F)F)ccc3n2)C(=O)c2cc3c4c(c(N)nc3cc2F)COC4)cn1 [Example 80] | 1000 to 10000 nM | < 100 nM
